# Entries after “also recorded” stand apart in the source; their conditions may differ. Read-outs that look alike come from different tables or passages of the source.
# How the values were obtained:
# Dh44+ cells [1] = experiment: Ca2+ imaging (GCaMP3.0) of Dh44+ cell activity in response to sugars, ex vivo fly brains; assay type: cell-based, Drosophila melanogaster; settings: for peak amplitude, oscillation number and frequency of Dh44+ cells activation: non-metabolized sugar treatment; for activation of Dh44+ cells: perfusion of sugar, brains of PDh44 GAL4>UAS-GCaMP3.0 flies, D-glucose 5, 20, 80 mM
# Dh44+ cells [2] = experiment: Ex vivo destaining experiment: Dh44 peptide release quantified by αDh44 immunofluorescence; assay type: cell-based, Drosophila melanogaster; settings: for release of the Dh44 peptide (amount of Dh44 peptide left inside Dh44+ cells): brains of 18 h-food deprived flies incubated in AHL + sugar 80 mM for 30′, compared with saline (AHL)
# [3] = system: CRH neurons in paraventricular nucleus (PVN); experiment: Whole-cell patch-clamp recordings of glucose sensing response in brain slices; assay type: cell-based, mice; parameters: Input R: unit not given here
# Method: Whole-cell patch-clamp recordings from CRH neurons in paraventricular nucleus (PVN) slice preparation and data analysis were performed as previously described (ref).
# Briefly, 3 to 5 week old of either male or female mice were anesthetized with isoflurane and transcardially perfused with a modified ice-cold artificial CSF (ACSF) in which NaCl was substituted with an equal molar concentration of sucrose (described below). Then, the mice was decapitated, and the entire brain was removed and then immediately immersed in ice-cold ACSF (220 mM sucrose, 2.5 mM KCl, 5.0 mM MgCl2, 1.0 mM CaCl2, 1.0 mM NaH2PO4, 26 mM NaHCO3, and 10 mM glucose), saturated with 95% O2 and 5% CO2. A brain block containing PVN was mounted on a stage and coronal sections (250 um) were cut with a Leica Vibratome. The sectioned slices were then incubated in oxygenated ACSF at 34° C. for at least 1 hour before recording. The slices were transferred into recording chamber and bathed in oxygenated ACSF. The solution flowing the recording chamber was consists of: (126 mM NaCl, 26 mM NaHCO3, 2.8 mM KCl, 2.5 mM CaCl2, 1.25 mM NaH2PO4, 1.2 mM MgSO4, and 5 mM or 2.5 mM glucose). The pipette solution for whole-cell recording was modified to include an intracellular dye (Alexa Fluor 488): 120 mM K-gluconate, 10 mM KCl, 10 mM HEPES, 5 mM EGTA, 1 mM CaCl2, 1 mM MgCl2, and 2 mM MgATP, 0.03 mM Alexa Fluor 488 dye, pH 7.3. Electrophysiological signals were recorded using an […] amplifier (Molecular Devices), low-pass filtered at 2-5 kHz, and analyzed offline on a PC with pCLAMP programs (Molecular Devices). Recording electrodes had resistances of 4.0-6.0 MΩ when filled with K-gluconate pipette solution.
# As the cells to be targeted illuminate red fluorescence from td-tomato, the pipette with positive pressure was attached to cell membrane, which was subsequently giga-sealed by brief negative pressure, before making a tiny hole with more negative pressure to perform whole-cell recordings. Only cells with a whole-cell resistance below 15 MΩ and with a stable resting membrane potential within 1 min were selected and carried out recording. […] At the end of a stable trace, its input resistance was assessed by measuring the voltage deflection to hyperpolarizing rectangular current pulse steps (500 ms of −10 to −50 pA). […] Depending on the cells, it took 1-5 min to change the membrane potential and firing rate. After stabilizing the change in electrophysiological response, input resistance was assessed in the same way as previously described. […] (For most CRH neurons as GE neurons, it took more than 10 min to recover after the response.)
# [4] = Table 2, glucose back to 2.5 mM
smiles,measurement,setting,value
"O=CC[C@@H](O)[C@H](O)[C@H](O)CO [2DG, 2-deoxy-D-glucose]","peak amplitude, oscillation number and frequency of Dh44+ cells activation",Dh44+ cells [1],greatly reduced or nearly abolished
same,activation of Dh44+ cells,Dh44+ cells [1],small increase in activity that lacked oscillations
same,release of the Dh44 peptide (amount of Dh44 peptide left inside Dh44+ cells),Dh44+ cells [2],did not result in the release
same,release of the Dh44 peptide (amount of Dh44 peptide left inside Dh44+ cells),Dh44+ cells [2]; listed as D-2′-deoxy-glucose,did not induce
O=C1NC(=O)C(=O)C(=O)N1 [Alloxan],oscillations of Dh44+ cells,Dh44+ cells [1]; D-glucose + Alloxan perfusion,almost complete disappearance
same,peak amplitude of activation of Dh44+ cells,Dh44+ cells [1]; D-glucose + Alloxan perfusion,dramatic decrease
same,effect on D-glucose-mediated activity (Ca++ influx) of Dh44+ cells,"Dh44+ cells [1]; agent added to the D-glucose solution, Alloxan 4 μM",greatly suppressed
same,effect on D-glucose-induced Dh44 neuropeptide release,"Dh44+ cells [2]; agent together with D-glucose, ex vivo",did not result in the release; also recorded: reduction
O=C(CO)[C@@H](O)[C@H](O)[C@H](O)CO [D-fructose],activation of Dh44+ cells,Dh44+ cells [1],robustly activated
same,activation of Dh44+ cells,Dh44+ cells [1]; listed as fructose,robust and persistent activation
O=C[C@H](O)[C@@H](O)[C@H](O)[C@H](O)CO [D-glucose],activation of Dh44+ cells,Dh44+ cells [1],robust and persistent activation; also recorded: robustly activated
same,f,"[3]; Table 1 (FIGS. 10A-10B), glucose 5 mM, first",0.64 HZ
same,Input R,"[3]; Table 1, glucose 2.5 mM",1.25
same,RMP,"[3]; Table 1, glucose 2.5 mM",−65.8874 mV
same,f,"[3]; Table 1, glucose 2.5 mM",0.02 HZ
same,Input R,"[3]; Table 1, glucose 5 mM",1.40
same,Rev P,"[3]; Table 1, glucose 5 mM to 2.5 mM",−222.95 mV
same,RMP,"[3]; Table 1, glucose 5 mM, first",−49.5691 mV
same,RMP,"[3]; Table 1, glucose back to 5 mM",−57.9124 mV
same,f,"[3]; Table 1, glucose back to 5 mM",0.65 HZ
same,Rev P,[3]; Table 2,−169 mV
same,f,"[3]; Table 2 (FIGS. 11A-11B), glucose 2.5 mM, first",0.64 HZ
same,Input R,"[3]; Table 2, column headed glucose 2.5 mM",2.66
same,Input R,"[3]; Table 2, column headed glucose 5 mM",2.82
same,RMP,"[3]; Table 2, glucose 2.5 mM, first",−60.5911 mV
same,RMP,"[3]; Table 2, glucose 5 mM",−52.4561 mV
same,f,"[3]; Table 2, glucose 5 mM",0.02 HZ
same,RMP,[3]; [4],−59.3806 mV
same,f,[3]; [4],0.65 HZ
same,time to change the membrane potential and firing rate,[3]; after recording solution changed from 5 mM to 2.5 mM glucose,1 to 5 min
same,electrical activity of the CRH neurons,[3]; glucose changed from 2.5 mM to 5 mM,increased
same,electrical activity of the CRH neurons,[3]; glucose changed from 5 mM to 2.5 mM,decreased
same,time to recover after the response,"[3]; recording solution changed back to 5 mM glucose, most CRH neurons",more than 10 min
O=C[C@@H](O)[C@H](O)[C@@H](O)[C@@H](O)CO [L-glucose],"peak amplitude, oscillation number and frequency of Dh44+ cells activation",Dh44+ cells [1],greatly reduced or nearly abolished
same,activation of Dh44+ cells,Dh44+ cells [1],small increase in activity that lacked oscillations
same,release of the Dh44 peptide (amount of Dh44 peptide left inside Dh44+ cells),Dh44+ cells [2],did not result in the release; also recorded: did not induce
"NC1=N[C@H](O)[C@H]2[C@H]3O[C@]4(O)O[C@@H]([C@@H](O)[C@@]2(N1)[C@@H]4O)[C@]3(O)CO [TTX, Tetrodotoxin]",effect on D-glucose-mediated activity (Ca++ influx) of Dh44+ cells,Dh44+ cells [1],small but non-significant effect; also recorded: small but nonsignificant effect
same,effect on D-glucose-induced Dh44 neuropeptide release,Dh44+ cells [2],did not affect
OC[C@H]1O[C@H](O[C@H]2O[C@H](CO)[C@@H](O)[C@H](O)[C@H]2O)[C@H](O)[C@@H](O)[C@@H]1O [trehalose],activation of Dh44+ cells,Dh44+ cells [1],robust and persistent activation; also recorded: robustly activated

# Reference: US20150231276A1, “ROLE OF DH44 AND HOMOLOGS IN CALORIE SENSING” (New York University, priority 2014, published 2015)
